The source of these data is ChEMBL document CHEMBL3351457, “Design and synthesis of 8-hydroxyquinoline-based radioprotective agents” (Bioorg Med Chem, 2014).

Calls of active or inactive are those of the source. No cut-off for these calls is given here.

In data set [1] the test system is MOLT-4. The data set can be described thus: Radioprotective activity against gamma-irradiated human MOLT4 cells preincubated for 1 hr at 100 to 400 uM before gamma-irradiation measured after 18 hrs by erythrosine B dye-exclusion test. The format is functional, cell-based.
The subject of data set [2] is MOLT-4. In words: Radioprotective activity against gamma-irradiated human MOLT4 cells preincubated for 1 hr at <50 uM before gamma-irradiation measured after 18 hrs by erythrosine B dye-exclusion test. It counts as functional, cell-based.
The subject of data set [3] is MOLT-4. In words: Cytotoxicity against human MOLT4 cells at 100 to 400 uM after 18 hrs by erythrosine B dye-exclusion test. It counts as cell-based. The settings on record: molt-4, 18 h.
Data set [4] has as its system Jurkat. The data set can be described thus: Cytotoxicity against p53-inactive human Jurkat cells at after 18 hrs by erythrosine B dye-exclusion test. The format is cell-based.
The subject of data set [5] is Jurkat. In words: Radioprotective activity against gamma-irradiated p53-inactive human Jurkat cells at after 18 hrs by erythrosine B dye-exclusion test. The format is functional, cell-based.
Data set [6] has as its target Cellular tumor antigen p53 (Homo sapiens) (UniProt P04637). The data set can be described thus: Inhibition of recombinant FLAG-p53 (unknown origin) binding to FITC-labeled double-stranded oligonucleotide measured after 3 hrs by EMSA in presence of zinc(II) chelators.
Data set [7] concerns MOLT-4. The data set can be described thus: Inhibition of apoptosis in gamma-irradiated human MOLT4 cells compound treated at 100 to 400 uM for 3 hrs post gamma-irradiation after 18 hrs by erythrosine B dye-exclusion test. The format is functional, cell-based.
The subject of data set [8] is MOLT-4. The data set can be described thus: Inhibition of apoptosis in gamma-irradiated human MOLT4 cells preincubated for 1 hr at 100 to 400 uM before gamma-irradiation measured after 18 hrs by erythrosine B dye-exclusion test. The format is functional, cell-based.
Data set [9] in a line: Antioxidant activity assessed as DPPH free radical scavenging activity by UV-vis spectrophotometry. The format is physicochemical.
Data set [10] addresses Cellular tumor antigen p53 (Homo sapiens) (UniProt P04637). In words: Binding affinity to recombinant FLAG-p53 (unknown origin) assessed as confirmational change measured after 12 hrs by CD spectroscopy in presence of zinc(II) chelators.
Data set [11] has as its system MOLT-4. In words: Radioprotective activity against gamma-irradiated human MOLT4 cells preincubated for 1 hr before gamma-irradiation measured after 18 hrs by erythrosine B dye-exclusion test. The format is functional, cell-based.
In data set [12] the test system is MOLT-4. The data set can be described thus: Cytotoxicity against human MOLT4 cells at 200 to 300 uM after 18 hrs by erythrosine B dye-exclusion test. The conditions noted are these: molt-4, 18 h. It counts as cell-based.
The nature of data set [13]: Stability of the compound assessed as hydrolysis at 37 degC after 18 hrs. The format is physicochemical.

Cellular tumor antigen p53 (Homo sapiens), sequence (P04637 whole entry, looked up): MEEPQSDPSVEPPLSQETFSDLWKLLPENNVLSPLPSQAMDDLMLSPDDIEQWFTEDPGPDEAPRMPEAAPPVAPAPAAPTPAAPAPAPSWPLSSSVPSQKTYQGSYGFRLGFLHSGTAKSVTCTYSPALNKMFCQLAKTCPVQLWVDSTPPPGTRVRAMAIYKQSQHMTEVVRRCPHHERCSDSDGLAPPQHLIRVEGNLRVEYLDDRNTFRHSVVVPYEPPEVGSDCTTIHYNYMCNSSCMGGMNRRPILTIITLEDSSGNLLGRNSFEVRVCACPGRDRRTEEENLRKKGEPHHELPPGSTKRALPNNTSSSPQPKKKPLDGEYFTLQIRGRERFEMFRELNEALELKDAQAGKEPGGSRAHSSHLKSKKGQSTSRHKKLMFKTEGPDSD

With `Cc1ccc2cccc(O)c2n1`, the result in data set [1] was Active.

As to `Cc1ccc2c(S(=O)(=O)N3CCNCC3)cc(S(=O)(=O)N3CCNCC3)c(O)c2n1`, in data set [1], the outcome was Active.

As to `Oc1cccc2cccnc12` [OXYQUINOLINE], the result in data set [2] was Active. For the same compound, the Activity entry in [3] is reported as “Toxic”.

On to `COc1c(S(=O)(=O)N(C)C)cc(S(=O)(=O)N(C)C)c2ccc(C)nc12`, for which the values for the Activity result in data set [4], in data set [3] and in [9] were “Non-toxic”, “Non-toxic” and “Not Active”, respectively. The result in data set [5] and in data set [10] was inactive. Besides, in data set [6], the inhibition result was “inactive”. The inhibition result in data set [7] was “Active”. Further, the “apoptosis inhibition (active/inactive)” value in data set [8] was “Active”.

For `c1ccc(CN(CCN(Cc2ccccn2)Cc2ccccn2)Cc2ccccn2)nc1`, the outcome in data set [2] was Active.

Take `COc1c(I)cc(S(=O)(=O)N(C)C)c2ccc(C)nc12`: the “apoptosis inhibition (active/inactive)” value in data set [8] was “Active”. Moreover, the Activity result in data set [3] was “Toxic”.

With `CNS(=O)(=O)c1cc(S(=O)(=O)NC)c2ccc(C)nc2c1OC`, in [8], the “apoptosis inhibition (active/inactive)” value is “Active”.

`CNS(=O)(=O)c1cc(S(=O)(=O)NC)c2ccc(C)nc2c1O`: the Activity result is “Non-toxic” in [4], “Dose-dependent effect” in data set [11], “Non-toxic” in data set [3] and “Not Active” in data set [9]. Also, the result in [1] was Active. The outcome in data set [5] and in [10] was inactive. Also, the inhibition result in data set [6] was “inactive”. Further, in [7], the inhibition result was “Active”.

For `c1ccc2cnccc2c1`, the outcome in data set [1] was inactive.

Regarding `Oc1ccc(Cl)c2ccccc12`, the result in [1] was inactive.

As to `Cc1ccc2c(S(=O)(=O)N3CCCNCC3)cc(S(=O)(=O)N3CCCNCC3)c(O)c2n1`, the result in data set [1] was Active.

`CCOc1c(Br)cc(S(=O)(=O)N(C)C)c2ccc(C)nc12`: the Activity result in [3] is on record as “Toxic”.

Regarding `Cc1ccc2c(S(=O)(=O)N(C)C)ccc(O)c2n1`, the outcome in data set [1] was Active. For the same compound, in data set [3], the Activity entry is “Non-toxic”.

For `COc1cc(/C=C/C(=O)CC(=O)/C=C/c2ccc(O)c(OC)c2)ccc1O`, in [2], the result was Active.

With `CNS(=O)(=O)c1cc(S(=O)(=O)NC)c2cccnc2c1O`, in [1], the outcome was Active. Also, the Activity entry in data set [11] was “Dose-dependent effect”. For the same compound, the result in data set [2] was inactive.

Consider `CCOc1c(S(=O)(=O)N(CC)CC)cc(S(=O)(=O)N(CC)CC)c2ccc(C)nc12`, for which, in data set [3], the Activity entry is “Toxic”.

With `CCN(CC)S(=O)(=O)c1cc(S(=O)(=O)N(CC)CC)c2ccc(C)nc2c1OC`, in data set [8], the “apoptosis inhibition (active/inactive)” value was “Active”. Also, the Activity entry in [3] was “Toxic”.

On to `CCOc1c(S(=O)(=O)N(C)C)cc(S(=O)(=O)N(C)C)c2ccc(C)nc12`, for which, in [8], the “apoptosis inhibition (active/inactive)” value is “Active”.

For `CCOc1ccc(S(=O)(=O)N(C)C)c2ccc(C)nc12`, the “apoptosis inhibition (active/inactive)” value in [8] was “Active”.

In the case of `CN(C)S(=O)(=O)c1ccc2c(S(=O)(=O)N(C)C)cc(S(=O)(=O)N(C)C)c(O)c2c1`, the outcome in [1] was inactive.

For `Oc1ccc(Cl)c2cccnc12` [CLOXYQUIN], in data set [2], the outcome was Active. Moreover, the Activity result in data set [3] is listed as “Toxic”.

As for `O=C1O[C@H]([C@@H](O)CO)C(O)=C1O`, the outcome in data set [2] was Active.

With `Cc1ccc2c(S(N)(=O)=O)cc(S(N)(=O)=O)c(O)c2n1`, in [1], the outcome was inactive.

Turning to `COc1c(Br)cc(S(=O)(=O)N(C)C)c2ccc(C)nc12`, the “apoptosis inhibition (active/inactive)” value in data set [8] was “Active”. For the same compound, in data set [3], the Activity result was “Toxic”.

With `CNS(=O)(=O)c1cc(S(=O)(=O)NC)c2ccc(C)nc2c1OS(C)(=O)=O`, the Activity result in data set [12] is reported as “Toxic”. Besides, the Stability entry in [13] is reported as “Unstable”.

As for `CNS(=O)(=O)c1ccc(OC)c2nc(C)ccc12`, the “apoptosis inhibition (active/inactive)” value in data set [8] was “Active”. Further, the Activity entry in data set [3] is “Non-toxic”.

As for `Cc1ccc2c(S(=O)(=O)NCCN)cc(S(=O)(=O)NCCN)c(O)c2n1`, the result in data set [1] was inactive.

In the case of `c1ccc(CNCCNCc2ccccn2)nc1`, the outcome in data set [2] and in [10] was Active.

`Cc1ccc2c(S(=O)(=O)N(C)C)cc(S(=O)(=O)N(C)C)c(O)c2n1`: the Activity entry in data set [3] was “Toxic”.

Consider `CCCNS(=O)(=O)c1cc(S(=O)(=O)NCCC)c2ccc(C)nc2c1O`, for which the Activity result in data set [3] is on record as “Toxic”.

Take VITAMIN E: the result in data set [2] was Active.

Take `CN(C)S(=O)(=O)c1cc(Br)c(O)c2ncccc12`: the outcome in data set [1] was Active.

Consider `Oc1cccc2ccccc12`, for which the outcome in [1] was inactive.

For the compound `CCOc1c(I)cc(S(=O)(=O)N(C)C)c2ccc(C)nc12`, the Activity entry in data set [3] is “Toxic”.

As for `COc1ccc(S(=O)(=O)N(C)C)c2ccc(C)nc12`, the “apoptosis inhibition (active/inactive)” value in [8] was “Active”. In data set [3], the Activity entry is “Non-toxic”.

Take `c1ccc2ncccc2c1`: the result in data set [1] was inactive.

In the case of `Cc1ccc2c(S(=O)(=O)N(C)C)cc(Br)c(O)c2n1`, in data set [1], the outcome was Active. Besides, the Activity result in data set [3] was “Non-toxic”.

For `CN(C)S(=O)(=O)c1ccc(O)c2ncccc12`, the result in [1] was Active.

With `CCN(CC)S(=O)(=O)c1cc(S(=O)(=O)N(CC)CC)c2ccc(C)nc2c1O`, the Activity entry in [3] is on record as “Toxic”.
